According to US7442501B2, “SQV nucleic acids and polypeptides” (Massachusetts Institute of Technology, priority 2002, dated 2008):

What was measured:
chondroitin synthase [1] = molecular target: T1, chondroitin synthase (Caenorhabditis elegans, UniProt Q7Z1Z1); experiment: GlcAT (glucuronyl transferase) assay of chondroitin synthase activity in worm protein extracts; format: biochemical
T1 construct: wild-type (N2) animals were used to prepare worm protein extracts; from tissue; host or cells: whole C. elegans hermaphrodites (young adults), sonicated protein extract
T1 sequence (Q7Z1Z1 1-736): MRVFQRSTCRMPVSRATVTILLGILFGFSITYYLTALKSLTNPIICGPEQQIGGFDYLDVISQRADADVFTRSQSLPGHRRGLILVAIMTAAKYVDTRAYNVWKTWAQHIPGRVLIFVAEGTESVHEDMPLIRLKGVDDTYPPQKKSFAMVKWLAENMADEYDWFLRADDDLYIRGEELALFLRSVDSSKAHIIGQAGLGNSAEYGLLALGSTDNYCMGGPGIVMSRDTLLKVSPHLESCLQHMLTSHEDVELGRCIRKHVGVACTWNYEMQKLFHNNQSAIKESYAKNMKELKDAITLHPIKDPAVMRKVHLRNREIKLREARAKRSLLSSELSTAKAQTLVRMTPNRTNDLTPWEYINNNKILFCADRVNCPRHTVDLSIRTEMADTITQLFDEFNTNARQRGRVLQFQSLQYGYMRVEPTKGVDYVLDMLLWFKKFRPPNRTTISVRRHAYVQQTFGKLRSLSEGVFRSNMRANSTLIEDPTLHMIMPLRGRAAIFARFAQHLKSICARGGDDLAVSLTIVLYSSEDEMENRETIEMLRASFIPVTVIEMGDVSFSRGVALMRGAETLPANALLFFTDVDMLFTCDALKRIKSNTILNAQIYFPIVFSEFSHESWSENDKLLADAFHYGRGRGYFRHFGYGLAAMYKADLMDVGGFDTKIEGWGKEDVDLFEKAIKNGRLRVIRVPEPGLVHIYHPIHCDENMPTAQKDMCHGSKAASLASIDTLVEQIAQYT
Method: (§1) sqv-5(n3611), sqv-5(n3611)/hT2, and wild-type (N2) animals were used to prepare worm protein extracts. These extracts were tested for chondroitin synthase activity using standard methods, for example, in DeAngelis et al., (J. Biol. Chem. 27:24124-24129, 2000).
(§2) A desulfated chondroitin acceptor was used for the GalNAcT (N-acetylgalactosamyl transferase) assay. Desulfated and β-glucuronidase-treated chondroitin acceptor was used for the GlcAT (glucuronyl transferase) assay.
(§3) The enzymatic activity of SQV-5 was assayed as follows. SQV-5(n3611), sqv-5(n3611)/hT2, and wild-type N2 hermaphrodites were picked as L4 larvae by visual examination of the vulva using a dissecting microscope. The worms staged were allowed to grow for an additional twenty-three to twenty-seven hours at 22° C., re-examined, then transferred to 1.7-ml plastic tubes containing sterile water. The staged worms were washed once with water and twice with 50 mM Tris, pH 7.5, then frozen in a 50 μl volume using liquid nitrogen, and stored at −70° C.
(§4) Worm extracts were assayed for GIcAT glucoronosyltransferase activity by combining 1.3×10^5 cpm UDP-^3H-glucuronic acid donor (NEN), 6 μg β-glucuronidase-treated chondroitin acceptor, and 2.7 μg worm extract in a 25 μl reaction volume containing 0.05% Triton X-100, 10 mM MnCl2, and 100 μM ATP, pH 6.5. GalNAcT activity was detected by combining 1.3 to 3×10^5 cpm UDP-^3H-GalNAc donor (NEN), 12 μg chondroitin acceptor, and 6.7 μg worm extract in a 25 μl reaction volume containing 0.05% Triton X-100 and 10 mM MnCl2, pH 6.5. […] Pelleted material was resuspended in water and counted by liquid scintillation.
(§5) The chondroitin acceptor used was prepared as follows. […] Uronic acid concentration of both preparations was determined by the Carbazole method (Bitter, et al., Anal. Biochem. 4:330-334, 1962).

chondroitin synthase [2] = experiment: as above; format: biochemical; conditions: extract genotype sqv-5/sqv-5 (sqv-5(n3611))
Method: as §1, §2, §3, §4, §5

`O=C(O)[C@H]1O[C@H](OP(=O)(O)OP(=O)(O)OC[C@H]2O[C@@H](n3ccc(=O)[nH]c3=O)[C@H](O)[C@@H]2O)[C@H](O)[C@@H](O)[C@@H]1O` [UDP-glucuronic acid] showed a CPM (chondroitin synthase [1]; extract genotype +/+ (wild-type)) of 1820 CPM, a CPM (chondroitin synthase [1]; extract genotype +/sqv-5 (sqv-5(n3611)/hT2)) of 1369 CPM and a CPM (chondroitin synthase [2]) of 109 CPM.
